Assay results from ChEMBL document CHEMBL3885881, “DrugMatrix”.

Species: Rattus norvegicus
Assay: DrugMatrix - Regimen: Daily Repeat
Format: toxicity, organism-based, Sprague-Dawley
Design: regimen Daily Repeat, gender Male, age 6-8 weeks
Conditions: in vivo, po, route oral GAVAGE, vehicle .5 % CMC; for TOTAL PROTEIN / ALANINE AMINOTRANSFERASE / ALBUMIN / ALKALINE PHOSPHATASE / ASPARTATE AMINOTRANSFERASE / BLOOD UREA NITROGEN / CARBON DIOXIDE / CHLORIDE / CHOLESTEROL / CREATINE PHOSPHOKINASE / CREATININE / GLUCOSE / LACTATE DEHYDROGENASE / LIPASE / POTASSIUM / SODIUM / TOTAL BILIRUBIN: tissue Plasma; for ABSOLUTE BASOPHIL / ABSOLUTE EOSINOPHIL / ABSOLUTE LYMPHOCYTE / ABSOLUTE MONOCYTE / ABSOLUTE SEGMENTED NEUTROPHIL / BASOPHIL / EOSINOPHIL / ERYTHROCYTE COUNT / HEMATOCRIT / HEMOGLOBIN / LEUKOCYTE COUNT / LYMPHOCYTE / MEAN CORPUSCULAR HEMOGLOBIN / MEAN CORPUSCULAR HEMOGLOBIN CONCENTRATION / MEAN CORPUSCULAR VOLUME / MONOCYTE / NEUTROPHIL / NUCLEATED RED BLOOD CELLS / PLATELET COUNT: tissue Blood
[1] = 150 mg/kg, 120 h, dose level Low, time 5 day
[2] = 2000 mg/kg, 72 h, dose level High, time 3 day
[3] = 2000 mg/kg, 120 h, dose level High, time 5 day

C[C@@H]1CC[C@H]2[C@@H](C)C(=O)O[C@@H]3O[C@@]4(C)CC[C@@H]1[C@]32OO4 [ARTEMISININ]
TOTAL PROTEIN (150 mg/kg, 72 h, dose level Low, time 3 day): 6.7 G/DL | ABSOLUTE BASOPHIL [1]: 0 CELLS/uL | ABSOLUTE EOSINOPHIL [1]: 0 CELLS/uL | ABSOLUTE LYMPHOCYTE [1]: 11615.67 CELLS/uL | ABSOLUTE MONOCYTE [1]: 298.33 CELLS/uL | ABSOLUTE SEGMENTED NEUTROPHIL [1]: 986 CELLS/uL | BASOPHIL [1]: 0% | EOSINOPHIL [1]: 0% | ERYTHROCYTE COUNT [1]: 5.22 x10E6/uL | HEMATOCRIT [1]: 33.07% | HEMOGLOBIN [1]: 12.77 G/DL | LEUKOCYTE COUNT [1]: 12.9 x10E3/uL | LYMPHOCYTE [1]: 90% | MEAN CORPUSCULAR HEMOGLOBIN [1]: 24.43 pg | MEAN CORPUSCULAR HEMOGLOBIN CONCENTRATION [1]: 38.63 G/DL | MEAN CORPUSCULAR VOLUME [1]: 63.33 fL | MONOCYTE [1]: 2.33% | NEUTROPHIL [1]: 7.67% | NUCLEATED RED BLOOD CELLS [1]: 0 /100WBC | PLATELET COUNT [1]: 1315 x10E3/uL | ALANINE AMINOTRANSFERASE [1]: 48.67 u/L | ALBUMIN [1]: 3.93 G/DL | ALKALINE PHOSPHATASE [1]: 408.33 u/L | ASPARTATE AMINOTRANSFERASE [1]: 87.67 u/L | BLOOD UREA NITROGEN [1]: 18 mg/dL | CARBON DIOXIDE [1]: 27 mmol/L | CHLORIDE [1]: 101 MEQ/L | CHOLESTEROL [1]: 71.67 mg/dL | CREATINE PHOSPHOKINASE [1]: 464 u/L | CREATININE [1]: 0.19 mg/dL | GLUCOSE [1]: 139.33 mg/dL | LACTATE DEHYDROGENASE [1]: 476 u/L | LIPASE [1]: 10 u/L | POTASSIUM [1]: 6.65 MEQ/L | SODIUM [1]: 141.93 MEQ/L | TOTAL BILIRUBIN [1]: 0.2 mg/dL | TOTAL PROTEIN [1]: 5.93 G/DL | ABSOLUTE BASOPHIL [2]: 0 CELLS/uL | ABSOLUTE EOSINOPHIL [2]: 274 CELLS/uL | ABSOLUTE LYMPHOCYTE [2]: 15228 CELLS/uL | ABSOLUTE MONOCYTE [2]: 318.67 CELLS/uL | BASOPHIL [2]: 0% | EOSINOPHIL [2]: 1.67% | ERYTHROCYTE COUNT [2]: 5.42 x10E6/uL | HEMATOCRIT [2]: 33.43% | HEMOGLOBIN [2]: 13.03 G/DL | LEUKOCYTE COUNT [2]: 16.97 x10E3/uL | LYMPHOCYTE [2]: 89% | MEAN CORPUSCULAR HEMOGLOBIN [2]: 24.07 pg | MEAN CORPUSCULAR HEMOGLOBIN CONCENTRATION [2]: 39 G/DL | MEAN CORPUSCULAR VOLUME [2]: 61.67 fL | MONOCYTE [2]: 2% | NEUTROPHIL [2]: 7.33% | NUCLEATED RED BLOOD CELLS [2]: 0 /100WBC | PLATELET COUNT [2]: 1460 x10E3/uL | ALANINE AMINOTRANSFERASE [2]: 59.67 u/L | ALBUMIN [2]: 4 G/DL | ALKALINE PHOSPHATASE [2]: 390 u/L | ASPARTATE AMINOTRANSFERASE [2]: 112.33 u/L | BLOOD UREA NITROGEN [2]: 19.67 mg/dL | CARBON DIOXIDE [2]: 23.67 mmol/L | CHLORIDE [2]: 101.67 MEQ/L | CHOLESTEROL [2]: 97.67 mg/dL | CREATINE PHOSPHOKINASE [2]: 581.33 u/L | CREATININE [2]: 0.25 mg/dL | GLUCOSE [2]: 144.33 mg/dL | LACTATE DEHYDROGENASE [2]: 387.67 u/L | LIPASE [2]: 12.33 u/L | POTASSIUM [2]: 6.36 MEQ/L | SODIUM [2]: 142.67 MEQ/L | TOTAL BILIRUBIN [2]: 0.2 mg/dL | TOTAL PROTEIN [2]: 6 G/DL | ABSOLUTE BASOPHIL [3]: 0 CELLS/uL | ABSOLUTE EOSINOPHIL [3]: 156.67 CELLS/uL | ABSOLUTE LYMPHOCYTE [3]: 13145.33 CELLS/uL | ABSOLUTE MONOCYTE [3]: 96 CELLS/uL | ABSOLUTE SEGMENTED NEUTROPHIL [3]: 868.67 CELLS/uL | BASOPHIL [3]: 0% | EOSINOPHIL [3]: 1% | ERYTHROCYTE COUNT [3]: 5.52 x10E6/uL | HEMATOCRIT [3]: 33.57% | HEMOGLOBIN [3]: 13.27 G/DL | LEUKOCYTE COUNT [3]: 14.27 x10E3/uL | LYMPHOCYTE [3]: 92% | MEAN CORPUSCULAR HEMOGLOBIN [3]: 24.07 pg | MEAN CORPUSCULAR HEMOGLOBIN CONCENTRATION [3]: 39.53 G/DL | MEAN CORPUSCULAR VOLUME [3]: 60.87 fL | MONOCYTE [3]: 0.67% | NEUTROPHIL [3]: 6.33% | NUCLEATED RED BLOOD CELLS [3]: 0.33 /100WBC | PLATELET COUNT [3]: 1230 x10E3/uL | ALANINE AMINOTRANSFERASE [3]: 52.67 u/L | ALBUMIN [3]: 4.1 G/DL | ALKALINE PHOSPHATASE [3]: 299.67 u/L | ASPARTATE AMINOTRANSFERASE [3]: 83.33 u/L | BLOOD UREA NITROGEN [3]: 19.33 mg/dL | CARBON DIOXIDE [3]: 28.67 mmol/L | CHLORIDE [3]: 104 MEQ/L | CHOLESTEROL [3]: 75.33 mg/dL | CREATINE PHOSPHOKINASE [3]: 308.33 u/L | CREATININE [3]: 0.23 mg/dL | GLUCOSE [3]: 133 mg/dL | LACTATE DEHYDROGENASE [3]: 153.67 u/L | LIPASE [3]: 10.33 u/L | POTASSIUM [3]: 6.54 MEQ/L | SODIUM [3]: 147.4 MEQ/L | TOTAL BILIRUBIN [3]: 0.17 mg/dL | TOTAL PROTEIN [3]: 6.1 G/DL
